Source: patent EP1285920A1, “C10 Ester sustituted taxanes as antitumor agents” (Florida State University Research Foundation, Inc., priority 2001, dated 2003)

These compounds were tested on A2780 ovarian carcinoma (assay: not given). Details: number of mice; i.v. qd x 1 at estimated MTD (Taxol 24 mg/kg, Taxotere 70 mg/kg, 0983 72.6 mg/kg); 5 mice/group (Taxotere 6); Day 60.
Procedure: Dosing was initiated on Day 1. […] Taxotere was given i.v. on a qd x 1 schedule at a dose of 70 mg/kg. […] The study was terminated on Day 60. Treatment groups are detailed in Table 7.

Structure (SMILES)	Survivors
CCC(=O)OC1C(=O)C2(C)C(O)CC3OCC3(OC(C)=O)C2C(OC(=O)c2ccccc2)C2(O)CC(OC(=O)C(O)C(NC(=O)c3ccccc3)c3cccs3)C(C)=C1C2(C)C (stereo not shown) [Compound 0687]	0

The compounds below were run on MX-1 carcinoma (assay: not given). Details: number of 6 mice; i.v. qd x 1 at MTD, Day 60; doses as in E17.
Procedure: Thirteen antitumor compounds were formulated for an i.v. dosing regime (single i.v. bolus, qd x 1 schedule) prepared in the following vehicle: 5% ethanol, 5% Cremophor and 90% isotonic saline.
(§1) The antitumor compounds were given intravenously in a single maximum tolerated dose (MTD) appropriate for each compound. […] The MTDs for the antitumor compounds were calculated from earlier single dose data for mice receiving i.v. administration of these compounds. All vehicle control animals in the split dosing regimes were dosed twice intravenously with half the total volume being given separated by one hour. The study was terminated on Day 60.
A complete response is obtained if the tumor is not palpable at the end of the study. […]

Structure (SMILES)	Survivors
CCC(=O)OC1C(=O)C2(C)C(O)CC3OCC3(OC(C)=O)C2C(OC(=O)c2ccccc2)C2(O)CC(OC(=O)C(O)C(NC(=O)c3ccccc3)c3cccs3)C(C)=C1C2(C)C (stereo not shown) [Compound 0687]	5

What follows are compounds tested on HCT116 (assay: In Vitro cytotoxicity measured by the cell colony formation assay). Details: HCT116 colony formation; 72 h with drug, colonies counted after 7 days; ID50 = concentration producing 50% inhibition of colony formation; read-out: IN VITRO ID 50 HCT116.
Type: cell-based, human
Procedure, shortened: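 Four hundred cells per dish in McCoy's 5a medium with 10% FBS were allowed to attach for 5 h at 37 °C. They were then exposed to compound for 72 h at 37 °C, added as a 10× stock made fresh in medium. After HBSS rinsing and refeeding, colonies were counted after 7 days.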

Structure (SMILES)	IC50
CC=CC(=O)OC1C(=O)C2(C)C(O)CC3OCC3(OC(C)=O)C2C(OC(=O)c2ccccc2)C2(O)CC(OC(=O)C(O)C(NC(=O)OC(C)(C)C)c3ccccn3)C(C)=C1C2(C)C (stereo not shown) [Compound 2348]	< 1 nM
CC=CC(=O)OC1C(=O)C2(C)C(O)CC3OCC3(OC(C)=O)C2C(OC(=O)c2ccccc2)C2(O)CC(OC(=O)C(O)C(NC(=O)OC(C)(C)C)c3cccnc3)C(C)=C1C2(C)C (stereo not shown) [Compound 2353]	< 10 nM

Same assay, conditions: Homo sapiens, HCT-116; read-out: IN VITRO ID 50 HCT116

Structure (SMILES)	IC50
CC(=O)O[C@@]12CO[C@@H]1C[C@H](O)[C@@]1(C)C(=O)[C@H](OC(=O)C=C(C)C)C3=C(C)[C@@H](OC(=O)[C@H](O)[C@@H](NC(=O)OC(C)(C)C)c4ccncc4)C[C@@](O)([C@@H](OC(=O)c4ccccc4)[C@H]21)C3(C)C [Compound 2472]	< 1 nM
CC(=O)O[C@@]12CO[C@@H]1C[C@H](O)[C@@]1(C)C(=O)[C@H](OC(=O)c3cccs3)C3=C(C)[C@@H](OC(=O)[C@H](O)[C@@H](NC(=O)OC(C)(C)C)c4ccco4)C[C@@](O)([C@@H](OC(=O)c4ccccc4)[C@H]21)C3(C)C [Compound 1892]	< 1 nM
CC(=O)OC12COC1CC(O)C1(C)C(=O)C(OC(=O)C(C)C)C3=C(C)C(OC(=O)C(O)C(NC(=O)OC(C)(C)C)c4ccsc4)CC(O)(C(OC(=O)c4ccccc4)C21)C3(C)C (stereo not shown) [Compound 2291]	< 1 nM
CCC(=O)O[C@H]1C(=O)[C@@]2(C)[C@H]([C@H](OC(=O)c3ccccc3)[C@]3(O)C[C@H](OC(=O)[C@H](O)[C@@H](NC(=O)OC(C)C)c4ccco4)C(C)=C1C3(C)C)[C@]1(OC(C)=O)CO[C@@H]1C[C@@H]2O [Compound 3522]	< 1 nM
CC(=O)O[C@@]12CO[C@@H]1C[C@H](O)[C@@]1(C)C(=O)[C@H](OC(=O)c3ccco3)C3=C(C)[C@@H](OC(=O)[C@H](O)[C@@H](NC(=O)OC(C)(C)C)c4ccoc4)C[C@@](O)([C@@H](OC(=O)c4ccccc4)[C@H]21)C3(C)C [Compound 2159]	< 1 nM
CC(=O)O[C@@]12CO[C@@H]1C[C@H](O)[C@@]1(C)C(=O)[C@H](OC(=O)c3cccs3)C3=C(C)[C@@H](OC(=O)[C@H](O)[C@@H](NC(=O)OC(C)(C)C)c4cccs4)C[C@@](O)([C@@H](OC(=O)c4ccccc4)[C@H]21)C3(C)C [Compound 1900]	< 1 nM
CCCC(=O)O[C@H]1C(=O)[C@@]2(C)[C@H]([C@H](OC(=O)c3ccccc3)[C@]3(O)C[C@H](OC(=O)[C@H](O)[C@@H](NC(=O)OC(C)C)c4cccs4)C(C)=C1C3(C)C)[C@]1(OC(C)=O)CO[C@@H]1C[C@@H]2O [Compound 3909]	< 1 nM
CC(=O)OC12COC1CC(O)C1(C)C(=O)C(OC(=O)C(C)C)C3=C(C)C(OC(=O)C(O)C(NC(=O)OC(C)(C)C)c4ccccn4)CC(O)(C(OC(=O)c4ccccc4)C21)C3(C)C (stereo not shown) [Compound 2238]	< 1 nM
C/C=C/C(=O)N[C@@H](c1ccco1)[C@@H](O)C(=O)O[C@H]1C[C@@]2(O)[C@@H](OC(=O)c3ccccc3)[C@@H]3[C@]4(OC(C)=O)CO[C@@H]4C[C@H](O)[C@@]3(C)C(=O)[C@H](OC(=O)CC)C(=C1C)C2(C)C [Compound 3982]	< 1 nM
CCCC(=O)O[C@H]1C(=O)[C@@]2(C)[C@H]([C@H](OC(=O)c3ccccc3)[C@]3(O)C[C@H](OC(=O)[C@H](O)[C@@H](NC(=O)OC(C)(C)C)C4CC4)C(C)=C1C3(C)C)[C@]1(OC(C)=O)CO[C@@H]1C[C@@H]2O [Compound 1020]	< 1 nM
CC(=O)O[C@@]12CO[C@@H]1C[C@H](O)[C@@]1(C)C(=O)[C@H](OC(=O)C3CC3)C3=C(C)[C@@H](OC(=O)[C@H](O)[C@@H](NC(=O)c4cccs4)c4cccs4)C[C@@](O)([C@@H](OC(=O)c4ccccc4)[C@H]21)C3(C)C [Compound 3453]	< 1 nM
CC(=O)O[C@@]12CO[C@@H]1C[C@H](O)[C@@]1(C)C(=O)[C@H](OC(=O)C=C(C)C)C3=C(C)[C@@H](OC(=O)[C@H](O)[C@@H](NC(=O)OC(C)(C)C)c4ccoc4)C[C@@](O)([C@@H](OC(=O)c4ccccc4)[C@H]21)C3(C)C [Compound 2499]	< 1 nM
CC(=O)O[C@@]12CO[C@@H]1C[C@H](O)[C@@]1(C)C(=O)[C@H](OC(=O)C3CC3)C3=C(C)[C@@H](OC(=O)[C@H](O)[C@@H](NC(=O)c4cccs4)c4ccco4)C[C@@](O)([C@@H](OC(=O)c4ccccc4)[C@H]21)C3(C)C [Compound 3663]	< 1 nM
CCC(=O)O[C@H]1C(=O)[C@@]2(C)[C@H]([C@H](OC(=O)c3ccccc3)[C@]3(O)C[C@H](OC(=O)[C@H](O)[C@@H](NC(=O)c4ccco4)c4cccs4)C(C)=C1C3(C)C)[C@]1(OC(C)=O)CO[C@@H]1C[C@@H]2O [Compound 3053]	< 1 nM
CCCC(=O)O[C@H]1C(=O)[C@@]2(C)[C@H]([C@H](OC(=O)c3ccccc3)[C@]3(O)C[C@H](OC(=O)[C@H](O)[C@@H](NC(=O)OCC(C)C)C4CC4)C(C)=C1C3(C)C)[C@]1(OC(C)=O)CO[C@@H]1C[C@@H]2O [Compound 4808]	< 10 nM
C/C=C/C(=O)N[C@@H](c1ccoc1)[C@@H](O)C(=O)O[C@H]1C[C@@]2(O)[C@@H](OC(=O)c3ccccc3)[C@@H]3[C@]4(OC(C)=O)CO[C@@H]4C[C@H](O)[C@@]3(C)C(=O)[C@H](OC(=O)CC)C(=C1C)C2(C)C [Compound 4888]	< 1 nM
CCC(=O)O[C@H]1C(=O)[C@@]2(C)[C@H]([C@H](OC(=O)c3ccccc3)[C@]3(O)C[C@H](OC(=O)[C@H](O)[C@@H](NC(=O)OC(C)(C)C)c4ccsc4)C(C)=C1C3(C)C)[C@]1(OC(C)=O)CO[C@@H]1C[C@@H]2O [Compound 0562]	< 1 nM

Each compound was assayed on HCT116 carcinoma (assay: not given). Details: number of 5 mice; i.v. qd x 1 at MTD, Day 60; doses as in E3.
Procedure: Antitumor compounds were formulated for an i.v. dosing regime and were prepared in the following vehicle: 5% ethanol, 5% Cremophor and 90% isotonic saline.
as §1, with “half of” for “half”
A complete response is obtained if the tumor is not palpable at the end of the study.

Structure (SMILES)	Survivors
CCC(=O)OC1C(=O)C2(C)C(O)CC3OCC3(OC(C)=O)C2C(OC(=O)c2ccccc2)C2(O)CC(OC(=O)C(O)C(NC(=O)c3ccccc3)c3cccs3)C(C)=C1C2(C)C (stereo not shown) [Compound 0687]	5
